Entries after “also recorded” stand apart in the source; their conditions may differ. Where a name gives a salt, the structure may show the parent alone. Read-outs that look alike come from different tables or passages of the source.
Columns and labels:
[1] = biological target: T1, gp120 from the YU2 strain (Human immunodeficiency virus type 1 group M subtype B, UniProt P35961); assay: biochemical; format: binding, HIV-1
Experimental: (§1) The calorimetric cell (approximately 1.4 mL), containing gp120 from the YU2 strain dissolved in PBS (Roche Diagnostics GmbH, Mannheim, Germany), pH 7.4 with 2% DMSO, was titrated with the different inhibitors dissolved in the same buffer.
Analogue binding to full-length gp120 from the YU2 strain was next characterized by isothermal titration calorimetry to assess the enthalpic and entropic contributions to binding affinity (FIG. 7 and FIG. 3c). […] Schön, A. et al. Biochemistry 45, 10973-80 (2006). […] Schön, A. et al. Chem Biol Drug Des: 77, 161-165 (2011).
Isothermal titration calorimetric experiments were performed using a high-precision VP-ITC titration calorimetric system from MicroCal LLC. (Northampton, Mass.). The calorimetric cell (˜1.4 mL), containing gp120 at a concentration of about 2 μM dissolved in PBS, pH 7.4 (Roche Diagnostics GmbH), with 2% DMSO, was titrated with the different compounds dissolved in the same buffer at concentrations of 80-130 μM. The compound solution was added in aliquots of 10 μL at pre-set intervals. All solutions were degassed to avoid any formation of bubbles in the calorimeter during stirring. All experiments were performed at 25° C. The heat evolved upon injection of compound was obtained from the integral of the calorimetric signal. The heat associated with the binding reaction was obtained by subtracting the heat of dilution from the heat of reaction. The individual binding heats were plotted against the molar ratio, and the values for the enthalpy change (ΔH) and association constant, Ka (Kd=1/Ka), were obtained by nonlinear regression of the data.

[2] = system: HIV-1YU2 virus; assay: Single-round infection of Cf2Th-CD4/CCR5 cells by luciferase-expressing HIV-1YU2 virus; format: cell-based; details: for inhibition of entry of YU2 and ADA viruses: CD4- and CCR5-expressing cells
Experimental: as §1
(§2) Compounds were dissolved in dimethyl sulfoxide (DMSO), and stored at 10 mM concentrations at −20° C. The compounds were diluted in Dulbecco Modified Eagle Medium (DMEM, Invitrogen) to create 1 mM solutions before use. Soluble CD4 (sCD4) was purchased from ImmunoDiagnostics (Woburn, Mass.). Human 293T embryonic kidney and canine Cf2Th thymocytes (ATCC) were grown at 37° C. and 5% CO2 in DMEM (Invitrogen) containing 10% fetal bovine serum (Sigma) and 100 μg/mL of penicillin-streptomycin (Meditech, Inc.). Cf2Th cells stably expressing human CD4 and either CCR5 or CXCR4 (Babcock et al., 2001, Mirzabekov et al., 1999) were grown in medium supplemented with 0.4 mg/mL of G418 (Invitrogen) and 0.20 mg/mL of hygromycin B (Roche Diagnostics). Using the Effectene transfection reagent (Qiagen), 293T human embryonic kidney cells were cotransfected with plasmids expressing the pCMVΔP1ΔenvpA HIV-1 Gag-Pol packaging construct, the wild-type or mutant HIV-1YU2 envelope glycoproteins or the envelope glycoproteins of the control amphotropic murine leukemia virus (A-MLV), and the firefly luciferase-expressing vector at a DNA ratio of 1:1:3 μg. For the production of viruses pseudotyped with the A-MLV glycoprotein, a rev-expressing plasmid was added. The single-round, replication-defective viruses in the supernatants were harvested 24-30 hours after transfection, filtered (0.45 μm), aliquoted, and frozen at −80° C. until further use. The reverse transcriptase (RT) activities of all viruses were measured as described previously (Rho et al., 1981).
(§3) Cf2Th/CD4-CCR5 or Cf2Th/CD4-CXCR4 target cells were seeded at a density of 6×10^3 cells/well in 96-well luminometer-compatible tissue culture plates (Perkin Elmer) 24 h before infection. On the day of infection, (1 to 100 μM) was added to recombinant viruses (10,000 reverse transcriptase units) in a final volume of 50 μL and incubated at 37° C. for 30 minutes. The medium was removed from the target cells, which were then incubated with the virus-drug mixture for 2-4 hours at 37° C. At the end of this time point, complete medium was added to a final volume of 150 μL and incubated for 48 hours at 37° C. The medium was removed from each well, and the cells were lysed with 30 μL of passive lysis buffer (Promega) by three freeze-thaw cycles.

[3] = system: clade B Env-pseudoviruses; assay: Neutralization of Env-pseudoviruses in TZM-bl cells, clade B; format: cell-based, HIV-1; details: for neutralization breadth: clade B
Experimental: (§4) HIV-1 Env-pseudoviruses were prepared by transfecting 293T cells with 10 μg of rev/env expression plasmid and 30 μg of an env-deficient HIV-1 backbone vector (pSG3Δenv), using Fugene 6 transfection reagents (Invitrogen). Pseudovirus-containing culture supernatants were harvested two days after transfection, filtered (0.45 μm), and stored at −80° C. or in the vapor phase of liquid nitrogen. Neutralization was measured using HIV-1 Env-pseudoviruses to infect TZM-b1 cells as described previously (Li et al., 2005; Li et al., 2006; Seaman et al., 2010; Wu et al., 2009) with minor modifications. Briefly, the test reagent (DMJ-I-228, NBD556, or CD4-Ig) were diluted in complete media containing 10% DMSO. Then 40 μL of virus was added to 10 μL of serial diluted test reagent in duplicate wells of a 96-well flat bottom culture plate, and the virus-reagent mix was incubated for 30 min at 37° C. To keep assay conditions constant, sham media containing 10% DMSO was used in place of test reagent in specified control wells. The virus input was set at a multiplicity of infection of approximately 0.01-0.1, which generally results in 100,000 to 400,000 relative light units (RLU) in a luciferase assay (Promega, Madison, Wis.). The test reagent concentrations were defined at the point of incubation with virus supernatant. Neutralization curves were fit by nonlinear regression using a 5-parameter hill slope equation as previously described (Seaman et al., 2010).
(§5) To assess further the HIV-1 neutralization breadth and potency, we assayed 1, (+)-3, (+)-4 against 42 diverse strains of clades B and C Env-pseudoviruses (data not shown).

[4] = system: clade C Env-pseudoviruses; assay: Neutralization of Env-pseudoviruses in TZM-bl cells, clade C; format: cell-based, HIV-1; details: for neutralization breadth: clade C
Experimental: as §4, §5

[5] = system: amphotropic murine leukemia virus (A-MLV); assay: Specificity control: infection by virus pseudotyped with A-MLV envelope glycoproteins; format: cell-based; details: for specificity: inhibition of A-MLV entry: either cell type
Experimental: as §1
(§6) The recombinant viruses employed were pseudotyped with HIV-1 envelope glycoproteins derived from either an X4, laboratory-adapted HXBc2 isolate, or the R5, primary YU2 isolate. As a control for specificity, the viruses were pseudotyped with the envelope glycoproteins of the amphotropic murine leukemia virus (A-MLV), an unrelated retrovirus.
as §2, §3

[6] = system: mono-tropic (HXBc2) and dual tropic (89.6 and KB9) viruses; assay: Inhibition of entry on cells co-expressing CD4 and CXCR4; format: cell-based, HIV-1; details: Human immunodeficiency virus 1, read-out: IC50 of entry inhibition
Experimental: as §6
Compounds were dissolved in dimethyl sulfoxide (DMSO), and stored at 10 mM concentrations at −20° C. The compounds were diluted in Dulbecco Modified Eagle Medium (DMEM, Invitrogen) to create 1 mM solutions before use. Soluble CD4 (sCD4) was purchased from ImmunoDiagnostics (Woburn, Mass.). Human 293T embryonic kidney and canine Cf2Th thymocytes (ATCC) were grown at 37° C. and 5% CO2 in DMEM (Invitrogen) containing 10% fetal bovine serum (Sigma) and 100 μg/mL of penicillin-streptomycin (Meditech, Inc.). Cf2Th cells stably expressing human CD4 and either CCR5 or CXCR4 (Babcock et al., 2001, Mirzabekov et al., 1999) were grown in medium supplemented with 0.4 mg/mL of G418 (Invitrogen) and 0.20 mg/mL of hygromycin B (Roche Diagnostics). […] The reverse transcriptase (RT) activities of all viruses were measured as described previously (Rho et al., 1981). […]

[7] = system: recombinant HIV-1YU2; assay: Activation of viral infectivity in CD4-negative Cf2Th-CCR5 cells; format: cell-based; details: for enhancement of viral infectivity in CD4 deficient cells: YU2, CD4-negative, CCR5-expressing cells
[8] = system: YU2 S375W virus; assay: Viral inhibition with the cavity filling YU2 mutant S375W; format: cell-based, HIV-1
Experimental: Then, the capacity of DMJ-I-228 (10) to bind within the Phe43 cavity was assessed by measuring viral inhibition in the context of the cavity filling YU2 mutant S375W.

[9] = biological target: gp120 (Human immunodeficiency virus type 1 group M subtype B, UniProt P35961); details: previously reported, cited from earlier work
[10] = biological target: T1, gp120 from the YU2 strain; set-up: species or system HIV-1; details: from temperature dependence of the binding enthalpy
[11] = Human immunodeficiency virus 1, TZM-bl, read-out: IC50 GMT

N=C(N)NC[C@H]1Cc2ccccc2[C@@H]1NC(=O)C(=O)Nc1ccc(Cl)c(F)c1 [(+)-4, (+)-N^1-(4-Chloro-3-fluorophenyl)-N^2-(trans-2-(guanidinomethyl)indan-1-yl)oxalamide formate salt]
Kd ([1]; ITC, full-length gp120, read-out: Kd): 0.11 µM | IC50 ([2]; Human immunodeficiency virus 1, CCR5, read-out: IC50 of viral entry, YU2): 3.1 ± 0.6 µM | IC50 [3, 11]: 1.7 µM | neutralization breadth [3]: 100% | improvement over (+)-3 based on IC50 titers ([3]; clade B viruses): 60% | improvement over (+)-3 based on IC80 titers ([3]; clade B viruses): 1.5 fold | IC50 [4, 11]: 14 µM | neutralization breadth [4]: 59%

N=C(N)N[C@H]1Cc2ccccc2[C@@H]1NC(=O)C(=O)Nc1ccc(Cl)c(F)c1 [DMJ-I-228]
binding affinity compared to TS-II-224 (2) ([1]; ITC): comparable affinity | enthalpy change ΔH ([1]; ITC, 25° C.): -14.9 kcal/mol | entropy change ΔS ([1]; ITC, 25° C.): −20 cal/(K×mol) | entropy contribution −TΔS ([1]; ITC, 25° C.): -5.9 kcal/mol | Kd ([1]; ITC, 25° C., read-out: Kd (binding affinity)): 0.25 µM | inhibition of entry of YU2 and ADA viruses [2]: inhibited the entry | specificity: inhibition of A-MLV entry [5]: did not inhibit A-MLV entry | IC50 [6]: 6 to 30 µM | enhancement of viral infectivity in CD4 deficient cells [7]: did not enhance viral infectivity; also recorded: did not enhance entry | neutralization breadth [3]: 100% | neutralization breadth [4]: 100% | sensitivity of YU2 S375W virus to compound [8]: completely resistant

O=C(Nc1ccc(Cl)c(F)c1)C(=O)N[C@@H]1c2ccccc2C[C@@H]1O [TK-II-103, N^1-(4-chloro-3-fluorophenyl)-N^2-((1R,2S)-2-hydroxy-2,3-dihydro-1H-inden-1-yl)oxalamide]
specificity: inhibition of A-MLV entry [5]: non-specificity

N[C@H]1Cc2ccccc2[C@@H]1NC(=O)C(=O)Nc1ccc(Cl)c(F)c1 [AWS-I-50]
binding affinity compared to TS-II-224 (2) ([1]; ITC): three-fold loss in affinity | entropy contribution −TΔS ([1]; ITC, 25° C.): -7.6 kcal/mol | specificity: inhibition of A-MLV entry [5]: non-specificity

O=C(Nc1ccc(Cl)c(F)c1)C(=O)N[C@H]1c2ccccc2C[C@H]1O [TK-II-52]
specificity: inhibition of A-MLV entry [5]: non-specificity

CC1(C)CC(NC(=O)C(=O)Nc2ccc(Cl)cc2)CC(C)(C)N1 [NBD-556]
enthalpy change ([9]; 25° C.): -24.5 kcal/mol | unfavorable entropy change −TΔS, contribution to Gibbs energy [9]: 17.1 kcal/mol

N=C(N)N[C@@H]1Cc2ccccc2[C@H]1NC(=O)C(=O)Nc1ccc(Cl)c(F)c1 [AWS-I-169]
binding affinity compared to TS-II-224 (2) ([1]; ITC): comparable affinity | enthalpy change ΔH ([1]; ITC, 25° C.): -19.4 kcal/mol | entropy contribution −TΔS ([1]; ITC, 25° C.): -10.4 kcal/mol | inhibition of entry of YU2 and ADA viruses [2]: inhibited the entry | specificity: inhibition of A-MLV entry [5]: did not inhibit A-MLV entry | IC50 [6]: 6 to 30 µM | enhancement of viral infectivity in CD4 deficient cells [7]: did not enhance viral infectivity; also recorded: did not enhance entry | neutralization breadth [3]: 100% | neutralization breadth [4]: 100% | sensitivity of YU2 S375W virus to compound [8]: completely resistant | change in heat capacity [10]: −817±15 cal/(K×mol)

N[C@@H]1Cc2ccccc2[C@H]1NC(=O)C(=O)Nc1ccc(Cl)c(F)c1 [AWS-I-45, N^1-((1R,2R)-2-amino-2,3-dihydro-1H-inden-1-yl)-N^2-(4-chloro-3-fluorophenyl)oxalamide]
binding affinity compared to TS-II-224 (2) ([1]; ITC): three-fold loss in affinity | specificity: inhibition of A-MLV entry [5]: non-specificity

CNC(=O)C(NC(=O)C(=O)Nc1ccc(Cl)c(F)c1)c1ccccc1 (centres unmarked)
ΔG ([1]; Example 24 table): -7.6 kcal/mol | ΔH ([1]; Example 24 table): -9.2 kcal/mol | −TΔS ([1]; Example 24 table): +1.6 kcal/mol | Kd ([1]; Example 24 table, read-out: Kd): 2.5 µM | IC50 ([2]; Human immunodeficiency virus 1, Cf2Th-CD4/CCR5, read-out: IC50 of HIV-1 on CD4^+ cells): 70 µM | IC50 ([5]; Murine leukemia virus, read-out: IC50 of A-MLV on CD4^+ cells): 91.7 µM | Enhancement of viral infection of CD4− cells ([7]; Example 24 table): 0.00
